Key:
[1] = tested on: Danio rerio embryo; conditions: exposure time: 2 dpf
Procedure: (§1)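 Zebrafish embryos (UFZ-OBI strain) were exposed from 2 hpf for 48 h (2 dpf) or 96 h (4 dpf) at 28 °C; spontaneous tail coiling was scored at 25 hpf. Morphological features from automated image analysis (FishInspector), heart rate and locomotor response were fitted with drc models. Quantal endpoints were dichotomised at 2.5 SD from controls and fitted with a log-logistic model; heart rate, pigmentation and STC were normalised to the replicate control mean. Betamethasone was tested as betamethasone dipropionate, diflorasone as diflorasone diacetate.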

[2] = tested on: Danio rerio embryo; assay: EC20 Curvature_Increase; higher = less potent; conditions: exposure time: 2 dpf
Procedure: as §1

[3] = tested on: Danio rerio embryo; assay: EC20 LMR ligth decrease; higher = less potent; conditions: exposure time: 4 dpf
Procedure: as §1

[4] = tested on: Danio rerio embryo; assay: EC10 STC bell shape; higher = less potent; conditions: exposure time: 25 h
Procedure: as §1

[5] = tested on: Danio rerio embryo; assay: EC10 LMR dark; higher = less potent; conditions: exposure time: 4 dpf
Procedure: as §1

[6] = tested on: Danio rerio embryo; assay: EC50 Pericard size_Increase
Procedure: as §1

[7] = tested on: Danio rerio embryo; assay: EC20 Pigmentation decrease; higher = less potent; conditions: exposure time: 2 dpf
Procedure: as §1

[8] = tested on: Danio rerio embryo; assay: EC10 Pericard size_Increase; higher = less potent
Procedure: as §1

[9] = tested on: Danio rerio embryo; assay: EC10 Body length_Decrease; higher = less potent
Procedure: as §1

[10] = tested on: Danio rerio embryo; assay: EC20 Body length_Decrease; higher = less potent
Procedure: as §1

[11] = tested on: Danio rerio embryo; assay: EC20 Any effect; higher = less potent
Procedure: as §1

[12] = tested on: Danio rerio embryo; assay: EC20 STC bell shape; higher = less potent; conditions: exposure time: 25 h
Procedure: as §1

[13] = tested on: Danio rerio embryo; assay: EC50 Body length_Decrease
Procedure: as §1

[14] = tested on: Danio rerio embryo; assay: EC50 Otolith-eye distance_Decrease; conditions: exposure time: 4 dpf
Procedure: as §1

[15] = tested on: Danio rerio embryo; assay: EC10 Any effect; higher = less potent
Procedure: as §1

[16] = tested on: Danio rerio embryo; assay: EC10 LMR ligth decrease; higher = less potent; conditions: exposure time: 4 dpf
Procedure: as §1

[17] = tested on: Danio rerio embryo; assay: EC20 LMR dark; higher = less potent; conditions: exposure time: 4 dpf
Procedure: as §1

[18] = tested on: Danio rerio embryo; assay: EC20 Pericard size_Increase; higher = less potent
Procedure: as §1

[19] = tested on: Danio rerio embryo; assay: EC20 Otolith-eye distance_Decrease; higher = less potent; conditions: exposure time: 4 dpf
Procedure: as §1

[20] = tested on: Danio rerio embryo; assay: EC10 Curvature_Increase; higher = less potent; conditions: exposure time: 2 dpf
Procedure: as §1

[21] = tested on: Danio rerio embryo; conditions: exposure time: 4 dpf
Procedure: as §1

[22] = tested on: Danio rerio embryo; assay: EC10 Pigmentation decrease; higher = less potent; conditions: exposure time: 2 dpf
Procedure: as §1

[23] = tested on: Danio rerio embryo; assay: spontaneous tail coiling frequency (coils/min/embryo); higher = more spontaneous movement; conditions: 25 hpf
Procedure: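 Spontaneous tail coilings of zebrafish embryos exposed from 2 hpf were recorded at 24-25 hpf in 1-min videos and detected by a KNIME workflow from grey-value variance. Betamethasone was tested as the dipropionate, diflorasone as the diacetate.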

[24] = tested on: Danio rerio embryo; assay: EC50 Curvature_Increase; conditions: exposure time: 2 dpf
Procedure: as §1

[25] = tested on: Danio rerio embryo
Procedure: as §1

[26] = tested on: Danio rerio embryo; assay: EC20 Eye-jaw distance_Decrease; higher = less potent; conditions: exposure time: 4 dpf
Procedure: as §1

[27] = tested on: Danio rerio embryo; assay: EC10 Otolith-eye distance_Decrease; higher = less potent; conditions: exposure time: 4 dpf
Procedure: as §1

[28] = tested on: Danio rerio embryo; assay: EC50 Eye-jaw distance_Decrease; conditions: exposure time: 4 dpf
Procedure: as §1

[29] = tested on: Danio rerio embryo; assay: EC10 Eye-jaw distance_Decrease; higher = less potent; conditions: exposure time: 4 dpf
Procedure: as §1

O=C(O)Cc1ccccc1Nc1c(Cl)cccc1Cl [Diclofenac]
Conditions | EC10 Curvature Increase [µM] | EC10 Eye-jaw distance Decrease [µM] | EC10 LMR dark [µM] | EC10 LMR ligth decrease [µM] | EC10 Otolith-eye distance Decrease [µM] | EC10 Pigmentation decrease [µM] | EC10 STC bell shape [µM] | EC20 Curvature Increase [µM] | EC20 Eye-jaw distance Decrease [µM] | EC20 LMR dark [µM] | EC20 LMR ligth decrease [µM] | EC20 Otolith-eye distance Decrease [µM] | EC20 Pigmentation decrease [µM] | EC20 STC bell shape [µM] | EC50 Curvature Increase [µM] | EC50 Eye-jaw distance Decrease [µM] | EC50 LMR dark [µM] | EC50 Otolith-eye distance Decrease [µM] | EC50 Pigmentation decrease [µM]
[1] | – | – | – | – | – | – | – | – | – | – | – | – | – | – | – | – | – | – | 18.8
[2] | – | – | – | – | – | – | – | 12.1 | – | – | – | – | – | – | – | – | – | – | –
[3] | – | – | – | – | – | – | – | – | – | – | 6.64 | – | – | – | – | – | – | – | –
[4] | – | – | – | – | – | – | 32.4 | – | – | – | – | – | – | – | – | – | – | – | –
[5] | – | – | 6.21 | – | – | – | – | – | – | – | – | – | – | – | – | – | – | – | –
[7] | – | – | – | – | – | – | – | – | – | – | – | – | 13.2 | – | – | – | – | – | –
[12] | – | – | – | – | – | – | – | – | – | – | – | – | – | 37.8 | – | – | – | – | –
[14] | – | – | – | – | – | – | – | – | – | – | – | – | – | – | – | – | – | 9.6 | –
[16] | – | – | – | 5.85 | – | – | – | – | – | – | – | – | – | – | – | – | – | – | –
[17] | – | – | – | – | – | – | – | – | – | 6.84 | – | – | – | – | – | – | – | – | –
[19] | – | – | – | – | – | – | – | – | – | – | – | 6.89 | – | – | – | – | – | – | –
[20] | 11.5 | – | – | – | – | – | – | – | – | – | – | – | – | – | – | – | – | – | –
[21] | – | – | – | – | – | – | – | – | – | – | – | – | – | – | – | – | 8.07 | – | –
[22] | – | – | – | – | – | 10.9 | – | – | – | – | – | – | – | – | – | – | – | – | –
[24] | – | – | – | – | – | – | – | – | – | – | – | – | – | – | 13.2 | – | – | – | –
[26] | – | – | – | – | – | – | – | – | 6.88 | – | – | – | – | – | – | – | – | – | –
[27] | – | – | – | – | 5.67 | – | – | – | – | – | – | – | – | – | – | – | – | – | –
[28] | – | – | – | – | – | – | – | – | – | – | – | – | – | – | – | 10.1 | – | – | –
[29] | – | 5.49 | – | – | – | – | – | – | – | – | – | – | – | – | – | – | – | – | –

Conditions | EC10 Any effect [µM] | EC10 Body length Decrease [µM] | EC10 Pericard size Increase [µM] | EC20 Any effect [µM] | EC20 Body length Decrease [µM] | EC20 Pericard size Increase [µM] | EC50 Any effect [µM] | EC50 Body length Decrease [µM] | EC50 LMR ligth decrease [µM] | EC50 Pericard size Increase [µM] | EC50 STC bell shape [µM] | spontaneous tail coiling frequency
[6], exposure time: 2 dpf | – | – | – | – | – | – | – | – | – | 12.2 | – | –
[6], exposure time: 4 dpf | – | – | – | – | – | – | – | – | – | 8.32 | – | –
[8], exposure time: 2 dpf | – | – | 10.5 | – | – | – | – | – | – | – | – | –
[8], exposure time: 4 dpf | – | – | 5.93 | – | – | – | – | – | – | – | – | –
[9], exposure time: 2 dpf | – | 11.1 | – | – | – | – | – | – | – | – | – | –
[9], exposure time: 4 dpf | – | 6.47 | – | – | – | – | – | – | – | – | – | –
[10], exposure time: 2 dpf | – | – | – | – | 12.1 | – | – | – | – | – | – | –
[10], exposure time: 4 dpf | – | – | – | – | 7.11 | – | – | – | – | – | – | –
[11], exposure time: 2 dpf | – | – | – | 11.3 | – | – | – | – | – | – | – | –
[11], exposure time: 4 dpf | – | – | – | 5.45 | – | – | – | – | – | – | – | –
[13], exposure time: 2 dpf | – | – | – | – | – | – | – | 14.2 | – | – | – | –
[13], exposure time: 4 dpf | – | – | – | – | – | – | – | 8.33 | – | – | – | –
[15], exposure time: 2 dpf | 10.7 | – | – | – | – | – | – | – | – | – | – | –
[15], exposure time: 4 dpf | 4.28 | – | – | – | – | – | – | – | – | – | – | –
[18], exposure time: 2 dpf | – | – | – | – | – | 11.1 | – | – | – | – | – | –
[18], exposure time: 4 dpf | – | – | – | – | – | 6.72 | – | – | – | – | – | –
[23], 1 µM | – | – | – | – | – | – | – | – | – | – | – | 2.73
[23], 2 µM | – | – | – | – | – | – | – | – | – | – | – | 2.93
[23], 3.123 µM | – | – | – | – | – | – | – | – | – | – | – | 2.81
[23], 4 µM | – | – | – | – | – | – | – | – | – | – | – | 2.63
[23], 5.12 µM | – | – | – | – | – | – | – | – | – | – | – | 2.43
[23], 6.25 µM | – | – | – | – | – | – | – | – | – | – | – | 2.41
[23], 6.4 µM | – | – | – | – | – | – | – | – | – | – | – | 2.64
[23], 8 µM | – | – | – | – | – | – | – | – | – | – | – | 3.93
[23], 10 µM | – | – | – | – | – | – | – | – | – | – | – | 3.72
[23], 12.5 µM | – | – | – | – | – | – | – | – | – | – | – | 3.42
[23], 15.6 µM | – | – | – | – | – | – | – | – | – | – | – | 4.34
[23], 25 µM | – | – | – | – | – | – | – | – | – | – | – | 4.62
[23], 31.25 µM | – | – | – | – | – | – | – | – | – | – | – | 3.8
[23], 50 µM | – | – | – | – | – | – | – | – | – | – | – | 2.15
[23], 62.5 µM | – | – | – | – | – | – | – | – | – | – | – | 1.4
[23], 100 µM | – | – | – | – | – | – | – | – | – | – | – | 0
[23], 150 µM | – | – | – | – | – | – | – | – | – | – | – | 0
[25], exposure time: 2 dpf | – | – | – | – | – | – | 12.4 | – | – | – | – | –
[25], exposure time: 4 dpf | – | – | – | – | – | – | 8.22 | – | 8.24 | – | – | –
[25], exposure time: 25 h | – | – | – | – | – | – | – | – | – | – | 50.9 | –

Source: the supplement of paper PMC9013687
